Measurements as given in paper PMC8584730, “Bacillus subtilis ANSB168 Producing D-alanyl-D-alanine Carboxypeptidase Could Alleviate the Immune Injury and Inflammation Induced by Ochratoxin A” (International Journal of Molecular Sciences, 2021).

Columns and labels:
DacB = molecular target: T1, DacB (Bacillus subtilis, UniProt P35150); test: HPLC-fluorescence of OTA hydrolysis; assay type: biochemical; settings: 37 °C, optimal pH 7.5; amide bond hydrolysis to ochratoxin alpha
T1 construct: mature form without signal peptide (forward primer encodes Met-Ala-Ile-Asp-Val)

DacA = molecular target: T2, DacA (Bacillus subtilis, UniProt P08750); test: HPLC-fluorescence of OTA hydrolysis; assay type: biochemical; settings: 37 °C, optimal pH 7.0; amide bond hydrolysis to ochratoxin alpha
T2 construct: mature form without signal peptide (forward primer encodes Met-Ala-Ser-Asp)
T2 sequence (P08750 32-443): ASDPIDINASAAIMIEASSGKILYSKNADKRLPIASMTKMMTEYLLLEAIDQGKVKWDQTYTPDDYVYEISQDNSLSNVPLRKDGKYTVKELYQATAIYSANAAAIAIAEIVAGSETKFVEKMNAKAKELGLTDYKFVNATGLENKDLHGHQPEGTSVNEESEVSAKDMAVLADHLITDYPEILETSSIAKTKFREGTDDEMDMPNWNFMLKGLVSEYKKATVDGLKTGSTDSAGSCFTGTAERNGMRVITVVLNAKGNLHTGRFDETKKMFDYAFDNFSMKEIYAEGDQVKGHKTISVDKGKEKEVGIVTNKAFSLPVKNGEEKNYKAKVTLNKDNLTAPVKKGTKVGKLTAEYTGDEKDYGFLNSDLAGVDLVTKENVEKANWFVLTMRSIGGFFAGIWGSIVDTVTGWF

T1 sequence (P35150 28-382): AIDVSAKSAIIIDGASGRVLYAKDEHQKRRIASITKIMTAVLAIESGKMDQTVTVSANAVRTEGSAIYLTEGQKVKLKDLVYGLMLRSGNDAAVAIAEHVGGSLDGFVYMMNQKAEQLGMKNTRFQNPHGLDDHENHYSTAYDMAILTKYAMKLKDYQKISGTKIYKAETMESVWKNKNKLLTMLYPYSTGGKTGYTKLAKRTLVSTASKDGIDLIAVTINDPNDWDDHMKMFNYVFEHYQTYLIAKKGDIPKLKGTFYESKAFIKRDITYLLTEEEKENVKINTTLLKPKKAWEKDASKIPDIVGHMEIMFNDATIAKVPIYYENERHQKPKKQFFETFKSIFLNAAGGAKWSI

Compound: C[C@@H]1Cc2c(Cl)cc(C(=O)N[C@@H](Cc3ccccc3)C(=O)O)c(O)c2C(=O)O1 [Ochratoxin A, 7-carboxyl-5-chloro-8-hydroxyl-3,4-dihydro-3R-methyl-isocoumarin-7-L-β-phenylalanine]
- Km (DacB): 2820 nM
- Km (DacA): 6.79 µM
